# Patent US20090176864A1, “Methods For Improving Hepatic and Immune Function In An Animal” (Hill's Pet Nutrition, Inc., priority 2004, published 2009)
# Tests used:
# Format in all cases: in vivo
# lymphocyte proliferation [1] = test: Phytohaemagglutinin (PHA)-activated lymphocyte proliferation; details: cats
# Method: (§1) The study involved three groups of cats: Group 1) cats on a dry control food, Group 2) cats on a dry food fortified with approximately 65 ppm of lipoic acid, and Group 3) cats on a dry food fortified with approximately 650 ppm of lipoic acid on a dry matter basis. All cats were fled control food for a two week baseline period at the end of which time immune function assays were performed. One group of cats was then switched to the 65 ppm test food, one group to the 650 ppm test food and one group remained on control and all were fed for another 6 weeks at which time the baseline tests were performed again.
# lymphocyte proliferation [2] = test: Pokeweed mitogen-activated lymphocyte proliferation; details: cats
# Method: as §1
# lymphocyte proliferation [3] = test: Concanavalin A-activated lymphocyte proliferation; details: cats; for Concanavalin A-activated lymphocyte proliferation compared to baseline: 6 weeks
# Method: as §1
# lymphocyte proliferation [4] = test: Lymphocyte proliferation activity in old cats (overall statement); details: lipoic acid in food
# Method: as §1
# [5] = Bodyweight of cats fed lipoic acid fortified food
# Method: as §1
# [6] = 65 ppm lipoic acid in food, 6 weeks
compound,measurement,setting,value
O=C(O)CCCC[C@@H]1CCSS1 (racemic) [lipoic acid],PHA-stimulated lymphocyte proliferation between baseline and 6 weeks,lymphocyte proliferation [1]; [6],significant increase
same,"PHA stimulation, difference between groups","lymphocyte proliferation [1]; control vs 65 ppm vs 650 ppm, beginning or end",no significant difference
same,Pokeweed mitogen-stimulated lymphocyte proliferation compared to baseline,lymphocyte proliferation [2]; [6],significantly increased
same,"Pokeweed Mitogen stimulation, difference between groups","lymphocyte proliferation [2]; control vs 65 ppm vs 650 ppm, ANOVA, beginning and end of study",different between groups (ANOVA P<0.05) at the beginning but not the end
same,Concanavalin A-activated lymphocyte proliferation compared to baseline,lymphocyte proliferation [3]; 65 ppm lipoic acid in food,significant increase
same,Concanavalin A-activated lymphocyte proliferation compared to baseline,lymphocyte proliferation [3]; 650 ppm lipoic acid in food,displayed an increase
same,"Concanavalin A stimulation, difference between the groups","lymphocyte proliferation [3]; control vs 65 ppm vs 650 ppm, beginning and end of study",no significant difference
same,lymphocyte proliferation activity,lymphocyte proliferation [4],improved
same,effects on bodyweight,[5]; 65 ppm lipoic acid in food for 6 weeks,no adverse effects
same,effects on bodyweight,[5]; 650 ppm lipoic acid in food for 6 weeks,no adverse effects
